The subject of one data set is Picnic Beetle. Kind of data set: Field trial (first summer), topical. The data set is classed as in vivo. Particulars: .078125 μg/μl. As for the experimental part: (§1) In a variation of the above test, 1 microliter of a test solution containing a predetermined number of micrograms of benzimidazole was applied directly to larvae or adult insects.
(§2) During the previous summer similar field trials were conducted employing the same tests as heretofore but with some additional species of insects not included in the later tests. The results listed below are for tests in which an insect mortality was established by a given application route and at a given concentration in a particular test. The same 0 - 9 scoring system is used as is the designation of compounds by alphabetical symbols.

A further data set concerns Confused Flour Beetle. Kind of data set: Field trial (first summer), topical. The data set is classed as in vivo. As for the experimental part:
as §1, §2

The test system of the next data set is Yellow Mealworm Larvae. Nature of the data set: Field trial, topical application. Also on record: key: 0 = 0-10% mortality, 9 = 91-100% mortality (0-9 scale). In kind it is in vivo. A digest of the protocol: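 1 μL benzimidazole solution of set microgram content applied topically to larvae or adults. Mortality read at 24, 48 and 72 h where applicable, rated 0-9 (0 = 0-10%, 9 = 91-100%); values are average mortality per concentration.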

The next data set has as its system Mexican Bean Beetle. Kind of data set: Field trial (first summer), topical. The data set is classed as in vivo, Epilachna varivestis. The settings on record: .25 μg/μl. The method, then: as §1, §2
Data set [1] concerns Boll Weevil. Kind of data set: Field trial (first summer), topical. The data set is classed as in vivo, Anthonomus grandis. Particulars: .078125 μg/μl. As for the experimental part: as §1, §2
A further data set concerns Buffalo Tree Hopper. Kind of data set: Field trial (first summer), contact. Particulars: 125 ppm. In kind it is in vivo.
Source text: (§3) Infested plants are placed in 6 oz. prescription bottles filled with water to keep them from wilting. Cellucotton is wrapped around the plant stem and squeezed into the bottle neck to prevent the insects from drowning.
(§4) A DeVilbiss Special Atomizer (5004) is used at 10 psi to spray the test plant with different concentrations of compounds. The atomizer is held at arm's length to prevent blowing the insects off the host plant. After treating, the bottles are placed on a table covered with brown wrapping paper to catch the dead insects as they drop from the plant. The plants are spaced so the leaves or plants are not touching one another.
(§5) The results are read at 24, 48, and 72 hours when applicable. The rating scale is 0 to 9 where 0 = 0-10 percent and 9 = 91-100 percent mortality.
as §2

In a further data set the test system is Meadow Grasshopper. Kind of data set: Field trial (first summer), contact. The data set is classed as in vivo. Particulars: 125 ppm.
Source text: as §3, §4, §5, §2

In another data set the test system is Differential Grasshopper. Kind of data set: Field trial (first summer), contact. In kind it is in vivo. The settings on record: 125 ppm.
Source text: as §3, §4, §5, §2

Data set [2] concerns Southern Corn Rootworm Adults. Kind of data set: Field trial, contact poison test. The data set is classed as in vivo. A digest of the protocol:
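Mortality after direct spraying was scored at 24, 48 and 72 hours where applicable, using a 0–9 rating tied to 10% bands. Plants bearing insects received atomized compound at 10 psi over a range of concentrations.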

Another data set has as its system House Fly. Kind of data set: Housefly (Contact) Test. The data set is classed as in vivo, Musca domestica (Diptera). The settings on record: 50 ppm, 24 h. As for the experimental part:
Rearing cages containing four-day old adult house flies are chilled at 35°-40° F. for about 1 hour. One hundred flies are transferred from the rearing cage to each test cage using a small scoop. The caged flies are kept for 1-2 hours at 70°-80° F. The cages are sprayed in the same manner as described for the milkweed bug with 5 ml. of the test formulation. Two unsprayed cages are held as controls and two cages are sprayed with a 50 ppm DDT formulation as a reference standard. Mortality counts are made 24 hours after spraying. […] The same rating scale is employed as heretofore.

For the next data set, the system named is Oriental Cockroach. Nature of the data set: Oriental Roach Test. In kind it is in vivo, Blatta orientalis (Orthoptera). Particulars: 24 h. As for the experimental part: A rearing pan of late instar (3-4 months old) roaches is placed in a cold room for about 1 hour. Ten nymphs are taken from the pan and placed in each cage and the caged insects are kept at 70°-80° F. for 1 hour. The test cages are then sprayed in the manner indicated above in the milkweed bug test using 5 ml. of a formulation containing a specified amount of the insecticide. The test cages are held for 72 hours during which time the cockroaches are neither fed nor watered. Controls consist of 2 unsprayed cages, two cages sprayed with the formulation alone and 2 cages with a formulation containing 1000 ppm of heptachlor. Mortality counts are made 24 hours after spraying by shaking the cages lightly. All cockroaches remaining in the bottom are counted as dead.

A further data set deals with Two-spotted Spider Mite. Kind of data set: Two-spotted Spider Mite test. In kind it is in vivo, Tetranychus urticae (Acarina). The settings on record: 25 ppm, 48 h. As for the experimental part:
The procedure in this test is the same as that in the previous aphid test, except that about 100 two-spotted spider mites from a stock colony raised on squash plants are transferred to a cut squash cotyledon. The mortality is estimated 48 hours after spraying. The same rating scale is used.

The test system of data set [3] is Southern Corn Rootworm Adults. Kind of data set: Field trial, stomach poison test. In kind it is in vivo. A digest of the protocol:
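Insects, five or ten per dish, are fed air-dried leaves that were dipped in or sprayed with the compound at two or three rates. Mortality is rated 0–9 at 24, 48 and 72 h and averaged per concentration.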

Data set [4] deals with Boll Weevil. Kind of data set: Boll Weevil Test. Particulars: 48 h. The data set is classed as in vivo, Anthonomus grandis (Coleoptera). The source says:
The procedure is identical to that employed for the Mexican bean beetle and the Southern armyworm, except that 10 adult boll weevils are placed on cotton leaves that have been dipped into formulations of the test compounds. The same rating scale is used.

Data set [5] can be described thus: Solubility of sodium salt. The data set is classed as physicochemical.
The next data set relates to oriental roaches. Particulars: 250 ppm; cited from earlier work.
The test system of another data set is boll weevils. The settings on record: 250 ppm; cited from earlier work.
A further data set deals with milkweed bugs. The settings on record: 250 ppm; cited from earlier work.
The next data set concerns Southern armyworm larvae. Particulars: 250 ppm; cited from earlier work.
The subject of the next data set is house flies. The settings on record: 250 ppm; cited from earlier work.

Molecules are shown by their SMILES.

On to `C=CCOC(=O)n1c(C(F)(F)F)nc2c([N+](=O)[O-])cc(C(F)(F)F)cc21` [K, allyl 2,6-bis(trifluoromethyl)-4-nitro-1-benzimidazolecarboxylate], for which the insect mortality rating in the data set with Picnic Beetle, in the data set on Confused Flour Beetle (.078125 μg/μl), with Mexican Bean Beetle, in the data set on Boll Weevil [1], in the data set on Buffalo Tree Hopper and with Meadow Grasshopper was 9 (91-100 percent mortality) throughout. The insect mortality rating with Differential Grasshopper is reported as 9 (91-100 percent mortality). Further, the average mortality rating with Yellow Mealworm Larvae (0.03 μg/μl) was determined as 1; with Yellow Mealworm Larvae (0.07 μg/μl), 3; in the data set on Yellow Mealworm Larvae (0.15 μg/μl), 6.
On to `O=[N+]([O-])c1cc(C(F)(F)F)cc2nc(C(F)(F)F)[nH]c12.[Na]` [B, 2,6-bis(trifluoromethyl)-4-nitrobenzimidazole, sodium salt], for which the average mortality rating is 0 (0-10 percent) in [2] (25 ppm); 3 in data set [2] (50 ppm); 8 in data set [2] (100 ppm); 4 in data set [3] (25 ppm); 5 in data set [3] (50 ppm); 9 (91-100 percent mortality) in data set [3] (100 ppm). Moreover, the mortality rating with House Fly is recorded as 8.5; in the data set with Oriental Cockroach (25 ppm), “.5”; in the data set on Oriental Cockroach (100 ppm), 3.5; in the data set on Two-spotted Spider Mite, 8.5; in the data set with Boll Weevil [4] (25 ppm) it was 8.5; in the data set with Boll Weevil [4] (250 ppm), 8.5. Further, the insect mortality rating in the data set on Picnic Beetle, in the data set on Confused Flour Beetle (.3125 μg/μl) and in the data set with Boll Weevil [1] was 9 (91-100 percent mortality) in each case. In addition, the solubility in acid entry in data set [5] (acid) is “insoluble in acid”. Further, in [5] (water), the solubility in water entry is “water soluble”.
Take `FC(F)(F)c1nc2cc(Cl)c(Cl)cc2[nH]1` [2-trifluoromethyl-5,6-dichlorobenzimidazole]: the insecticidal activity result in the data set on oriental roaches was “no activity”; in the data set on boll weevils, “no activity”; with milkweed bugs it was “no activity”; in the data set on Southern armyworm larvae, “same excellent activity”; in the data set on house flies, “no activity”.

Source of the values: patent US4122184A, “Benzimidazole insecticides” (priority 1977, dated 1978).
